{"source": "patent US20140057323A1", "about": "“ENHANCED CELLODEXTRIN METABOLISM” (The Board of Trustees of the University of Illinois, priority 2011, published 2014)", "key": {"[1]": {"molecular_target": "S. cerevisiae hexokinase Hxk1 (NP_116711) (Saccharomyces cerevisiae, UniProt P04806)", "sequence (P04806 whole entry)": "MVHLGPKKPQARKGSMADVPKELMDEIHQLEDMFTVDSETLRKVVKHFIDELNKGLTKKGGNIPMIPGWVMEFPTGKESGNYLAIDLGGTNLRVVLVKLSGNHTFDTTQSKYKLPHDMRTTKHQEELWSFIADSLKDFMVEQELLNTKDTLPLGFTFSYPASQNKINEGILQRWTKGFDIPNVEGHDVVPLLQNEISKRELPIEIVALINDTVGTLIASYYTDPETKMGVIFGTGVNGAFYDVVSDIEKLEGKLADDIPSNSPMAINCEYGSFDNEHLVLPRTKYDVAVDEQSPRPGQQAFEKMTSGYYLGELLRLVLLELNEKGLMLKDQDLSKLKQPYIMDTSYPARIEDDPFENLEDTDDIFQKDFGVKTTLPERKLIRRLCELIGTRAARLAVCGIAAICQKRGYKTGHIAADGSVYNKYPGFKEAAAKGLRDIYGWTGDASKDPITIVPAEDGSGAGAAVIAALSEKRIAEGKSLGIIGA", "assay": "Effect of cellobiose on activity of purified hexokinase Hxk1", "format": "biochemical", "settings": "Hxk1, up to 184 mM cellobiose", "protocol": "(§1) The amount of hexokinase activity in cell extracts was determined by coupling the production of glucose-6-phosphate to the reduction of NADP^+ by glucose-6-phosphate dehydrogenase. 10 μg of cell extract was added to 1 mL of an assay mixture consisting of 50 mM Tris-HCl [pH 8.0 at 30° C.], 13.3 mM MgCl2, 540 μM ATP, 20 μM NADP^+, 1 U S. cerevisiae glucose-6-phosphate dehydrogenase, and 112 mM glucose. The number of pmol of glucose-6-phosphate produced per second was calculated by multiplying the rate of increase at 340 nm by 1.85×10^3, a conversion that was established from a glucose-6-phosphate standard curve.\n(§2) The Hxk1 (Accession: NP_116711), Hxk2 (Accession: NP_011261), and Glk1 (Accession: NP_009890) genes were expressed and purified in E. coli. First, the genes were cloned into the PmlI and XhoI restriction sites of the expression plasmid pET302. Hxk1 gene was amplified using the following primers: […]\n(§3) These constructs were transformed into the BL21(DE3) strain of E. coli, and the proteins were expressed and purified using Nickel-NTA agarose beads from Qiagen following the protocol for native batch purification provided by Qiagen. […] Protein concentrations were determined by the absorbance at 280 nm using extinction coefficients of 45840 M^−1 cm^−1, 45840 M^−1 cm^−1 and 30370 M^−1 cm^−1, for Hxk1, Hxk2 and Glk1, respectively. […]"}, "[2]": {"molecular_target": "T1, Neurospora crassa cellodextrin transporter CDT-1 (NCU00801), wild type, SEQ ID NO: 9, GFP-tagged, in S. cerevisiae D452-2 (Neurospora crassa, UniProt Q7SCU1)", "T1 construct": "[3H]-cellobiose uptake into whole cells", "T1 sequence (Q7SCU1 1-579)": "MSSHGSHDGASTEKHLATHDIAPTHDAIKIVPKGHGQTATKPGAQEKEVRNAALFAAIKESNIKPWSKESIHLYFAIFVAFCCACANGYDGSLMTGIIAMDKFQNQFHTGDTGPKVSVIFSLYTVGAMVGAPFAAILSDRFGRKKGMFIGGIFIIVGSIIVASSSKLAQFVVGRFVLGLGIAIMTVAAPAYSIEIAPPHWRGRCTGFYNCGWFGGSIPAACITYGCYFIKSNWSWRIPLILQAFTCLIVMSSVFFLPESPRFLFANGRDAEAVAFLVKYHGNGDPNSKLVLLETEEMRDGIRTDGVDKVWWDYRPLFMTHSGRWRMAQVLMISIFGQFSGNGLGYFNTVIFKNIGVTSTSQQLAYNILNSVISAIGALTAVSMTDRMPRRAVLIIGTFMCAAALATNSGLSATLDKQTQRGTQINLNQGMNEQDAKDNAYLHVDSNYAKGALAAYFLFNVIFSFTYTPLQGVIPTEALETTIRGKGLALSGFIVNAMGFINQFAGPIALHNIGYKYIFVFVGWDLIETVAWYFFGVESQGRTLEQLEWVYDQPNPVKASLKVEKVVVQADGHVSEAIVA", "assay": "Transporter kinetics, [3H]-cellobiose uptake into yeast", "format": "cell-based", "settings": "CDT-1 WT", "quoted_text": "Briefly, the yeast strain D452-2 transformed with mutant transporters was set-up at an OD (600 nm) of −0.2 in 50 mL of DOB-uracil and grown to an OD (600 nm) of ˜1. Cells were then harvested by centrifugation, washed 3× with 10 mLs of transport buffer (30 mM MES-NaOH [pH 5.6], 50 mM EtOH), and resuspended to a final OD (600 nm) of ˜40 in transport buffer. The GFP fluorescence of 100 μL of these cells was determined with excitation/emission wavelengths of 485/535 nm Beckman Coulter Paradigm™ plate reader. […] Reactions were stopped by spinning cells through the oil for 1 minute at 17,000 g, tubes were frozen in ethanol/dry ice, and tube-bottoms containing the cell-pellets were clipped off into 1 mL of 0.5 M NaOH. The pellets were solubilized overnight, 5 mL of Ultima Gold scintillation fluid added, and CPM determined in a Tri-Carb 2900TR scintillation counter."}, "[3]": {"molecular_target": "S. cerevisiae hexokinase Glk1 (NP_009890) (Saccharomyces cerevisiae, UniProt P17709)", "sequence (P17709 whole entry)": "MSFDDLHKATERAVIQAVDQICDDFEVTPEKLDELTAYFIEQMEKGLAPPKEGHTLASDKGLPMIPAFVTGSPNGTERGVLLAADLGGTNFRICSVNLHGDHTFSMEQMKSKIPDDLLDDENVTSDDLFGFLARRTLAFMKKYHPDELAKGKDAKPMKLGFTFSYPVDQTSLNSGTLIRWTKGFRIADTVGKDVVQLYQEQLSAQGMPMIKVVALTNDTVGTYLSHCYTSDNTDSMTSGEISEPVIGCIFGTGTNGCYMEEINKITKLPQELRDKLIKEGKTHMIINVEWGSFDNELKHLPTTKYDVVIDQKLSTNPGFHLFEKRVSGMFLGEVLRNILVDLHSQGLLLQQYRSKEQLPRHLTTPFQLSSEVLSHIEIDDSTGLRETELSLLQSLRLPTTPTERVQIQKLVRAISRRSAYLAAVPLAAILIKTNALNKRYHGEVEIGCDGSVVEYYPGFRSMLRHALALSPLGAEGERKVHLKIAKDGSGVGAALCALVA", "assay": "Effect of cellobiose on activity of purified hexokinase Glk1", "format": "biochemical", "settings": "read-out: reduction of hexokinase activity by cellobiose", "protocol": "as §1, §2, §3"}, "[4]": {"molecular_target": "S. cerevisiae hexokinase Hxk2 (NP_011261) (Saccharomyces cerevisiae, UniProt P04807)", "sequence (P04807 whole entry)": "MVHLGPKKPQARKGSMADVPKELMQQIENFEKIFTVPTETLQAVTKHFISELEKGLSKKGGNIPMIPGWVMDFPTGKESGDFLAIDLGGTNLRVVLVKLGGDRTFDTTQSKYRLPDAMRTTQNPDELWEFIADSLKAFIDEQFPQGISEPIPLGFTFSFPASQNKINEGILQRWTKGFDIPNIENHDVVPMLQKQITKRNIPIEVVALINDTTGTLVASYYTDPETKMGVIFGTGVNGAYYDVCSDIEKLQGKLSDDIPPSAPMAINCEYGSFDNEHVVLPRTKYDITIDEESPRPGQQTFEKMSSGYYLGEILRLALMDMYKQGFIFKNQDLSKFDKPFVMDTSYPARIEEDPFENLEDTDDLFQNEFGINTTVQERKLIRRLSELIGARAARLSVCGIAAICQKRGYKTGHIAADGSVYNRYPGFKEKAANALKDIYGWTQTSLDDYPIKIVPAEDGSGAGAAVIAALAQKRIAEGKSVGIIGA", "assay": "Effect of cellobiose on activity of purified hexokinase Hxk2", "format": "biochemical", "settings": "read-out: reduction of hexokinase activity by cellobiose", "protocol": "as §1, §2, §3"}}}
{"smiles": "OC[C@H]1O[C@@H](O[C@H]2[C@H](O)[C@@H](O)C(O)O[C@@H]2CO)[C@H](O)[C@@H](O)[C@@H]1O", "note": "(stereo partly shown) [cellobiose]", "values": [{"measurement": "effect of cellobiose on hexokinase activity", "setting": "[1]", "value": "unaffected"}, {"measurement": "Vmax", "setting": "[2]", "value": "0.60 ± 0.03", "unit": "µmol/s"}, {"measurement": "inhibition at 184000 µM", "setting": "[3]", "value": "~20", "unit": "%"}, {"measurement": "inhibition at 184000 µM", "setting": "[4]", "value": "~20", "unit": "%"}]}
